From publication PMC12051620, “Molecular basis underlying the specificity of an antagonist AA92593 for mammalian melanopsins” (The Journal of Biological Chemistry, 2025)

Biological target: T1, mouse melanopsin (Mus musculus, UniProt Q9QXZ9)
T1 construct: the C-terminal amino acid residues (94, 140, 200, 214, 296, and 308 residues); expressed in transfected cells; host or cells: COS-1
Experiment: GsX GloSensor assay with exogenous Gsα WT
Type: cell-based
Settings: 16.7 μM AA92593; COS-1 cells
Source text: Previous studies of human and mouse melanopsins reported that these melanopsins can activate not only Gq but Gs and Gi ([20], [21], [22]). Thus, we assessed the effect of AA92593 on Gsα WT or Gsα/i11 (with 11 C-terminal sequence of Giα) using the GsX GloSensor assay. In agreement with the promiscuous G protein-coupling of melanopsins, we observed light-dependent increase of GloSensor luminescence in COS-1 cells expressing Gsα or Gsα/i11 with human/mouse melanopsins (Fig. 1, G–J).
For GloSensor assay, opsins, GloSensor assay sensor (coded by pGlo-22F), and NanoBiT-tagged G proteins were transiently expressed in COS-1 cells (kindly provided from Dr David Farrens, Oregon Health and Science University) using PEI as described previously ([24], [52]). […] For GFP-fluorescence microscopy, a 35-mm cell culture dish (IWAKI) was transfected with 2 μg melanopsin-GFP plasmid and 8 μg PEI in 400 μl Opti-mem and 1.2 ml D-MEM. […]
The transfected COS-1 cells were incubated at 37 °C, 5% CO2 for 2 days, and the medium was aspirated and exchanged with 50 μl of HBSS (145 mM NaCl, 10 mM D-glucose, 5 mM KCl, 1 mM MgCl2, 1.7 mM CaCl2, 1.5 mM NaHCO3, 10 mM Hepes, pH 7.4), containing 33.3, 20, 10, 2, 0.2, 0.02, 0.002, or 0 μM AA92593, 0.5% dimetyl sulfoxide (DMSO), and 4% (vol/vol) GloSensor cAMP reagent stock solution. […] Luminescence was measured using GM-2000 or GM-3510 microplate reader (Promega). […]

T1 sequence (Q9QXZ9 1-381 limits assumed): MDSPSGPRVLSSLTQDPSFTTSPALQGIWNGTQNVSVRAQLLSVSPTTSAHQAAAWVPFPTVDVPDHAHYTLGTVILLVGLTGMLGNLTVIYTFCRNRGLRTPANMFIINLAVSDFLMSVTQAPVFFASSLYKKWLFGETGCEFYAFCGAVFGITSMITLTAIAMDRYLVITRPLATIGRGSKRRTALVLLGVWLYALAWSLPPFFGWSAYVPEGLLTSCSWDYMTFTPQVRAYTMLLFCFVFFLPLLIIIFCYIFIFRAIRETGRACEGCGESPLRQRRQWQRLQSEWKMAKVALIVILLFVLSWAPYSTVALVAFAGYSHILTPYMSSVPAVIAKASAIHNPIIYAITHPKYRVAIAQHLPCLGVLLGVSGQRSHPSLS

Q: For `COc1ccc(S(=O)(=O)N2CCCCC2)cc1C` [AA92593], which “effect on melanopsin-induced cAMP responses via exogenous Gsα” value is on record?
A: The value was “can suppress”.
